The source made the active and inactive calls. No cut-off for these calls is given here.
Key:
[1] = target: T1, Metabotropic glutamate receptor 5 (Homo sapiens, UniProt P41594); assay: Agonist activity at recombinant human mGlu5 receptor expressed in hamster AV12 cells co-expressing human EAAT1/Galpha1s assessed as increase in Ca2+ flux by Fluo-3-AM dye based FLIPR assay; type: functional, cell-based
[2] = AUC (0 to 24 hrs) in rat at 1 mg/kg, iv; type: ADME, organism-based; set-up: dose 1 mg/kg, time < 24 hr, route intravenous; details: in vivo
[3] = Drug uptake in NIH Swiss Webster mouse brain at 3 mg/kg, ip at 30 mins; type: ADME, organism-based; details: read-out: Drug uptake
[4] = target: T2, Metabotropic glutamate receptor 4 (Homo sapiens, UniProt Q14833); assay: Antagonist activity at recombinant human mGlu4 receptor expressed in hamster AV12 cells co-expressing human EAAT1/Galpha1s assessed as inhibition of Ca2+ flux by Fluo-3-AM dye based FLIPR assay; type: functional, cell-based
T2 sequence (Q14833 whole entry): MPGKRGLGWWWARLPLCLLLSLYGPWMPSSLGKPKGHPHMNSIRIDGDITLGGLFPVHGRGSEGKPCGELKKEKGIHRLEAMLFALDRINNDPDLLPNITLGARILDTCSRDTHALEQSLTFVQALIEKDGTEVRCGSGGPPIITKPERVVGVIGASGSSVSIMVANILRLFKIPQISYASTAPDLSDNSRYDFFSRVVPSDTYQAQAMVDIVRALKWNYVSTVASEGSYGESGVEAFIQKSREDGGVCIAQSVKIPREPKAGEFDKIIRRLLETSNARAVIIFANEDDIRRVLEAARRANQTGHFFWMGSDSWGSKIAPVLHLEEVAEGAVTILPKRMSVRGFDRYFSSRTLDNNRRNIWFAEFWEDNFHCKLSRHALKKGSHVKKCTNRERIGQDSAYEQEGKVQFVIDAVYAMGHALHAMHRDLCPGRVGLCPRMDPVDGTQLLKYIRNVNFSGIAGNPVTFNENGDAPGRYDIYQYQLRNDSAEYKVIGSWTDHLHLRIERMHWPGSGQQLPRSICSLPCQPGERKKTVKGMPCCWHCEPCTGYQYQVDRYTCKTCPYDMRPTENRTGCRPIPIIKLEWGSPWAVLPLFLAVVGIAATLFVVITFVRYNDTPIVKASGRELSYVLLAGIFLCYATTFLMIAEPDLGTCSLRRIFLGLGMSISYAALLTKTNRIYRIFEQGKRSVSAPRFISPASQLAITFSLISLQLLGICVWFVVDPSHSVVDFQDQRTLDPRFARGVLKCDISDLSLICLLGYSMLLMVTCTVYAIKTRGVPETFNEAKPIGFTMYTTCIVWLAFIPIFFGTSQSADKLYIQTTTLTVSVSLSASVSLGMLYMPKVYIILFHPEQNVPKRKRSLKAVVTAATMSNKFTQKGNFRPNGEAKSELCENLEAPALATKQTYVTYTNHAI

[5] = Cmax in rat at 1 mg/kg, iv; type: ADME, organism-based; set-up: dose 1 mg/kg, route intravenous; details: in vivo
[6] = Half life in rat at 5 mg/kg, po; type: ADME, organism-based; details: in vivo
[7] = Permeability from apical side to basolateral side in MDCK cells at 20 uM; type: ADME, cell-based, Canis lupus familiaris; details: dog
[8] = Antidepressant activity in NIH Swiss Webster mouse assessed as immobility time at 3 mg/kg, ip administered 30 mins prior to test measured during last 4 mins of the 6 mins observation time by forced swim test (reference value: 142 sec); type: functional, organism-based
[9] = target: T3, Metabotropic glutamate receptor 2 (Homo sapiens, UniProt Q14416); assay: Agonist activity at recombinant human mGlu2 receptor expressed in hamster AV12 cells co-expressing human EAAT1 assessed as increase in forskolin-stimulated cAMP formation up to 25 uM after 20 mins by HTRF assay; type: functional, cell-based
Target sequence in this assay (Q14416 whole entry): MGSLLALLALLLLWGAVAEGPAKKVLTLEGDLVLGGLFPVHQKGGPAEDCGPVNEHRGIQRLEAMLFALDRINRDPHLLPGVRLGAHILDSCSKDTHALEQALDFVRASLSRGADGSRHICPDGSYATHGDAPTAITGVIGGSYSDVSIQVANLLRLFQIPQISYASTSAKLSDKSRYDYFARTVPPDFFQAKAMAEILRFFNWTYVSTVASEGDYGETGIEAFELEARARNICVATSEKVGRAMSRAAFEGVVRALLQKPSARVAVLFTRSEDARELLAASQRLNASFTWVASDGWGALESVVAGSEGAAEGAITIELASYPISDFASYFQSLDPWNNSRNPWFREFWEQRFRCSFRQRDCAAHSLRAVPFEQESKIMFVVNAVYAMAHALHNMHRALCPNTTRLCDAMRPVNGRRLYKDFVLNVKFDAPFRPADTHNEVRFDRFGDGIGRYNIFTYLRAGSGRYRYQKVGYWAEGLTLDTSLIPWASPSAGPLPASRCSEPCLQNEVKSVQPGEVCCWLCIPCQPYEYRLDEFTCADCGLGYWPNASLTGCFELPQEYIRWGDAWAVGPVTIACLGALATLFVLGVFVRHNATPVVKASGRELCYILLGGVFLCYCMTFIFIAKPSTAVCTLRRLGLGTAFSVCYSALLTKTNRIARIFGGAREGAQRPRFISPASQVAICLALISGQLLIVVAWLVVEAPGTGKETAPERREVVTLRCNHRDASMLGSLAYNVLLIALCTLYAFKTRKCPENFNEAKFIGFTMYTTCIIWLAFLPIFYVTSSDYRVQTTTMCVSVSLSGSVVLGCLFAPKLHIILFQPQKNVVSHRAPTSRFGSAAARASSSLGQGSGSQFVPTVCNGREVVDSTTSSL

[10] = target: T3, Metabotropic glutamate receptor 2; assay: Antagonist activity at recombinant human mGlu2 receptor expressed in hamster AV12 cells co-expressing human EAAT1 assessed as reduction of DCG-4-inhibited forskolin-stimulated cAMP formation after 20 mins by HTRF assay; type: functional, cell-based
Rattus norvegicus = assay: Toxicity in rat assessed as increase in locomotive activity at 3 to 10 mg/kg, ip; type: organism-based; details: in vivo
[11] = Tmax in rat at 5 mg/kg, po; type: ADME, organism-based; details: in vivo
[12] = Unbound fraction in human plasma at 1 uM; type: ADME, cell-free
[13] = Ratio of drug level in brain to plasma in mouse at 10 mg/kg, ip after 30 mins; type: ADME, organism-based; details: read-out: BPR
[14] = Half life in rat at 1 mg/kg, iv; type: ADME, organism-based; details: in vivo
[15] = Antidepressant activity in NIH Swiss Webster mouse assessed as immobility time at 0.3 mg/kg, ip administered 30 mins prior to test measured during last 4 mins of the 6 mins observation time by forced swim test (reference value: 142 sec); type: functional, organism-based
ABCB1 (P-gp) = ABCB1 (P-gp) (Homo sapiens, UniProt P08183); assay: Inhibition of human ABCB1 expressed in MDCK cells at 5 to 25 uM relative to control; type: ADME, cell-based; details: MDCK-MDR1
[16] = target: T4, Metabotropic glutamate receptor 3 (Homo sapiens, UniProt Q14832); assay: Antagonist activity at recombinant human mGlu3 receptor expressed in hamster AV12 cells co-expressing human EAAT1 assessed as reduction of DCG-4-inhibited forskolin-stimulated cAMP formation after 20 mins by HTRF assay; type: functional, cell-based
[17] = AUC (0 to 24 hrs) in rat at 10 mg/kg, ip; type: ADME, organism-based; set-up: dose 10 mg/kg, time < 24 hr, route intraperitoneal; details: in vivo
[18] = target: T2, Metabotropic glutamate receptor 4; assay: Agonist activity at recombinant human mGlu4 receptor expressed in hamster AV12 cells co-expressing human EAAT1/Galpha1s assessed as increase in Ca2+ flux by Fluo-3-AM dye based FLIPR assay; type: functional, cell-based
CYP2C9 = CYP2C9 (Homo sapiens, UniProt P11712); assay: Inhibition of human CYP2C9 at 10 uM; type: ADME
[19] = Drug uptake in NIH Swiss Webster mouse brain at 1 mg/kg, ip at 30 mins; type: ADME, organism-based; details: read-out: Drug uptake
[20] = Unbound fraction in rat plasma at 1 uM; type: ADME, cell-free
[21] = target: Metabotropic glutamate receptor 8 (Homo sapiens, UniProt O00222); assay: Agonist activity at recombinant human mGlu8 receptor expressed in hamster AV12 cells co-expressing human EAAT1 assessed as induction of forskolin-stimulated cAMP formation after 20 mins by HTRF assay; type: functional, cell-based
[22] = Unbound fraction in monkey plasma at 1 uM; type: ADME, cell-free, Macaca mulatta; details: rhesus monkey
hERG (KCNH2) = hERG (KCNH2) (Homo sapiens, UniProt Q12809); assay: Displacement of [3H]-Astemizole from human ERG at 100 uM by membrane binding assay; details: membranes with human ERG, probe [3H]-Astemizole
[23] = target: T3, Metabotropic glutamate receptor 2; assay: Displacement of [3H]-LY459477 from human mGlu2 receptor expressed in hamster AV12 cell membranes co-expressing human EAAT1 after 90 mins by liquid scintillation counting method
Target sequence in this assay (Q14416 whole entry): as above

[24] = target: Metabotropic glutamate receptor 1 (Homo sapiens, UniProt Q13255); assay: Antagonist activity at recombinant human mGlu1 receptor expressed in hamster AV12 cells coexpressing human EAAT1/Galpha1s assessed as inhibition of Ca2+ flux by Fluo-3-AM dye based FLIPR assay; type: functional, cell-based
[25] = target: Voltage-gated inwardly rectifying potassium channel KCNH2 (Homo sapiens, UniProt Q12809); assay: Displacement of [3H]-Astemizole from human ERG by membrane binding assay
[26] = Antidepressant activity in rat assessed as increase in wakefulness at 3 to 10 mg/kg, ip
[27] = Volume of distribution at steady state in rat at 1 mg/kg, iv; type: ADME, organism-based; details: in vivo, read-out: Vdss
[28] = Antidepressant activity in ip dosed NIH Swiss Webster mouse assessed as reduction in immobility time administered 30 mins prior to evaluation measured on the last 4 mins of the 6 mins observation time by forced swim test; type: functional, organism-based
[29] = Drug metabolism in dog microsomes at 4 uM after 30 mins; type: ADME, Canis lupus familiaris, Microsome; details: read-out: Drug metabolism
[30] = Antidepressant activity in NIH Swiss Webster mouse assessed as immobility time at 1 mg/kg, ip administered 30 mins prior to test measured during last 4 mins of the 6 mins observation time by forced swim test (reference value: 142 sec); type: functional, organism-based
[31] = Plasma concentration in NIH Swiss Webster mouse at 1 mg/kg, ip at 30 mins; type: ADME, organism-based
[32] = target: T4, Metabotropic glutamate receptor 3; assay: Agonist activity at recombinant human mGlu3 receptor expressed in hamster AV12 cells co-expressing human EAAT1 assessed as increase in forskolin-stimulated cAMP formation up to 25 uM after 20 mins by HTRF assay; type: functional, cell-based
Target sequence in this assay (Q14832 whole entry): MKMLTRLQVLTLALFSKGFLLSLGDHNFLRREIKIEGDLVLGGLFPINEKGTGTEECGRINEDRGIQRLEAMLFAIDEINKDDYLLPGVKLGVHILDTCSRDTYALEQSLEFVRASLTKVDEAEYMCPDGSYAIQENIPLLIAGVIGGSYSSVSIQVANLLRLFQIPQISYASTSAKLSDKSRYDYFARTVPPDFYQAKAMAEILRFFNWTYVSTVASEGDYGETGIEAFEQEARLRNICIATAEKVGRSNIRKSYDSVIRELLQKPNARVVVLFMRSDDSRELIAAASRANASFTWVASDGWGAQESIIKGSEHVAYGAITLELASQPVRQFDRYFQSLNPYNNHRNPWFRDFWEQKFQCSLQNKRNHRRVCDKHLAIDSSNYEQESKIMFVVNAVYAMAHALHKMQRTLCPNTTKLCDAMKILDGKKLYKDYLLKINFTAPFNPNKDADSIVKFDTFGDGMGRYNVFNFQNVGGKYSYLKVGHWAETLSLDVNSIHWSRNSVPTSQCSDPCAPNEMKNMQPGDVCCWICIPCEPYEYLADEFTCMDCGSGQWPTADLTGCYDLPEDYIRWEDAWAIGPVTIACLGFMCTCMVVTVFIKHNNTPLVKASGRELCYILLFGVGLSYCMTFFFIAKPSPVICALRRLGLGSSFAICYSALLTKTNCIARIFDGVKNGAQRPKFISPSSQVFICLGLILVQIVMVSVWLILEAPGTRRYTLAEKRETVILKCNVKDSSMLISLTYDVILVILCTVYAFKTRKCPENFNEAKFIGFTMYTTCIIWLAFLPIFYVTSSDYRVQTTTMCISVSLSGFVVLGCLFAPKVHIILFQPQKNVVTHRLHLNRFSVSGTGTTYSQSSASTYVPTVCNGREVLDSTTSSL

[33] = Plasma concentration in NIH Swiss Webster mouse at 0.3 mg/kg, ip at 30 mins; type: ADME, organism-based
[34] = target: T1, Metabotropic glutamate receptor 5; assay: Antagonist activity at recombinant human mGlu5 receptor expressed in hamster AV12 cells coexpressing human EAAT1/Galpha1s assessed as inhibition of Ca2+ flux by Fluo-3-AM dye based FLIPR assay; type: functional, cell-based
[35] = target: Metabotropic glutamate receptor 6 (Homo sapiens, UniProt O15303); assay: Agonist activity at recombinant human mGlu6 receptor expressed in hamster AV12 cells co-expressing EAAT1 assessed as induction of forskolin-stimulated cAMP formation after 20 mins by HTRF assay; type: functional, cell-based
Sequence of Metabotropic glutamate receptor 6 (O15303 whole entry): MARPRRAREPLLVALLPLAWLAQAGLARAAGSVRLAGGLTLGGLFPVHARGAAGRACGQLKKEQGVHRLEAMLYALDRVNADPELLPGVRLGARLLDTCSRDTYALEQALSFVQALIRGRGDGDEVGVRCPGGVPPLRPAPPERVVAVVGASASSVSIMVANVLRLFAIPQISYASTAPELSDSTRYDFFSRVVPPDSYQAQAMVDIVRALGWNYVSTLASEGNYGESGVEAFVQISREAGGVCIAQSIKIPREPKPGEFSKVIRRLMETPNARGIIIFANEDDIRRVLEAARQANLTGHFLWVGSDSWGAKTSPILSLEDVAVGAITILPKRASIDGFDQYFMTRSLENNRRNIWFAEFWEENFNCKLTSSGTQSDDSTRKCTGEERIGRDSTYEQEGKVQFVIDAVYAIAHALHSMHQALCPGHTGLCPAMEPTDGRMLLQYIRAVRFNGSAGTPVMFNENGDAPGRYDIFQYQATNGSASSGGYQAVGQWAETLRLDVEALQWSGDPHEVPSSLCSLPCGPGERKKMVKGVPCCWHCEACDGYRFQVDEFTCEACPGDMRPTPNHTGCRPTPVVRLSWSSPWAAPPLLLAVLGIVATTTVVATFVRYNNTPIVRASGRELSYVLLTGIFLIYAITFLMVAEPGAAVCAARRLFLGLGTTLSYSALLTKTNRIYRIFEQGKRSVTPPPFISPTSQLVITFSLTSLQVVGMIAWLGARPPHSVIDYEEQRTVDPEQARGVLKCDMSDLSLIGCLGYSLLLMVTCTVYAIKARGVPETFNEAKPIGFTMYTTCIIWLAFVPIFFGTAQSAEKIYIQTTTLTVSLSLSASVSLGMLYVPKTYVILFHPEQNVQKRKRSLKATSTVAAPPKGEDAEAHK

[36] = Cmax in rat at 10 mg/kg, ip; type: ADME, organism-based; set-up: dose 10 mg/kg, route intraperitoneal; details: in vivo

T1 sequence (P41594 whole entry): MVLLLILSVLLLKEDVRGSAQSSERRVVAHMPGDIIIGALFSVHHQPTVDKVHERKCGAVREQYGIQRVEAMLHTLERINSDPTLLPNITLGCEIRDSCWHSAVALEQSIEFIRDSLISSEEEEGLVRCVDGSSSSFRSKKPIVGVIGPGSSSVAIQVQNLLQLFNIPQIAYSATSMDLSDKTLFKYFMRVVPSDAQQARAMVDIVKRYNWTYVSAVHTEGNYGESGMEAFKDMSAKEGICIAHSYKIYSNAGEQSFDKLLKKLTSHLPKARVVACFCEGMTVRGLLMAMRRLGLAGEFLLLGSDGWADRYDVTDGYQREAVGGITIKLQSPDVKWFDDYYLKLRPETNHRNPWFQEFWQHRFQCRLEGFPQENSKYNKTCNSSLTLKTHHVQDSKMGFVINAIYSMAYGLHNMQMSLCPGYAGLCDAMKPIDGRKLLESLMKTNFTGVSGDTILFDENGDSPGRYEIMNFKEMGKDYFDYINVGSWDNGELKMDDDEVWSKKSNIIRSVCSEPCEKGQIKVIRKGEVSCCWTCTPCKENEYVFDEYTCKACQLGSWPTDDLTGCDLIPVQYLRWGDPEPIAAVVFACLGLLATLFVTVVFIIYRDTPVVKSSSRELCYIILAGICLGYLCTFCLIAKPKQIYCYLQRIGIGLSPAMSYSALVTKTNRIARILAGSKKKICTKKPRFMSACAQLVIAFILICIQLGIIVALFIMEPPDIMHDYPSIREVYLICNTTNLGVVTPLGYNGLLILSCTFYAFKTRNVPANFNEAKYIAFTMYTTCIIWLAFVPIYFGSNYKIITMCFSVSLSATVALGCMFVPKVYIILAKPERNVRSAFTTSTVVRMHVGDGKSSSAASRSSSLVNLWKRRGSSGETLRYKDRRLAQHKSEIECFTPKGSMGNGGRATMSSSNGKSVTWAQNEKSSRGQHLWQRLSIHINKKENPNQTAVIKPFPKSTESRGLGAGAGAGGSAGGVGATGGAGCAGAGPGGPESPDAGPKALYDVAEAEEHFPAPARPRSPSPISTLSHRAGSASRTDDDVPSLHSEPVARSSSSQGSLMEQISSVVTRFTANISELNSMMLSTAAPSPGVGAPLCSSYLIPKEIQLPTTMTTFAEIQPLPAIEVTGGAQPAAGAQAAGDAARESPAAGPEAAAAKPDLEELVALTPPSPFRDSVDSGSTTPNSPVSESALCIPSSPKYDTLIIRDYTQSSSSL

In the case of `N[C@]1(C(=O)O)[C@@H]2[C@@H](C(=O)O)[C@@H]2[C@H](O)[C@H]1OCc1ccc(Cl)c(Cl)c1`, the EC50 [1] is reported as > 25 µM, the AUC [2] is reported as 32.165 µM·h and the concentration at 0.5 h [3] is reported as 0.248 µM. For the same compound, the IC50 [4] was > 12.5 µM, the Cmax [5] was 33.9 µM and the half-life [6] was 5.49 h. For the same compound, the permeability [7] was 2%, the TIME [8] was 0.0167 h and the EC50 [9] was > 25 µM. The IC50 [10] was 0.046 µM, the Imax [10] was > 94% and the Activity (Rattus norvegicus) was “Non-Toxic”. The Tmax [11] was 1.67 h, the fraction unbound at 1 µM [12] was > 0.4 and the Kp at 0.5 h [13] was 0.015. The half-life [14] was 4.61 h, the TIME [15] was 0.0394 h and the inhibition (ABCB1 (P-gp)) was < 1%. The IC50 [16] was 0.0461 µM, the Imax [16] was > 94% and the AUC(0-t) at 24 h [17] was 116 µM·h. For the same compound, the EC50 [18] was > 25 µM, the inhibition at 10 µM (CYP2C9) was < 5% and the concentration at 0.5 h [19] was 0.072 µM. For the same compound, the fraction unbound at 1 µM [20] was > 0.4, the EC50 [21] was > 50 µM and the fraction unbound at 1 µM [22] was > 0.4. The inhibition at 100 µM (hERG (KCNH2)) was 13%, the Ki [23] was 0.0201 µM and the IC50 [24] was > 12.5 µM. The Ki [25] was > 100 µM, the Activity [26] was “Active” and the Vd [27] was 0.589 L/kg. The ED60 [28] was 0.72 mg/kg, the MED [28] was 1 mg/kg and the metabolised at 0.5 h, 4 µM [29] was < 20%. For the same compound, the TIME [30] was 0.0272 h, the concentration at 0.5 h [31] was 4.81 µM and the EC50 [32] was > 25 µM. The concentration at 0.5 h [33] was 1.29 µM, the IC50 [34] was > 12.5 µM and the EC50 [35] was > 12.5 µM. For the same compound, the Cmax [36] was 48.1 µM.

Source: ChEMBL document CHEMBL3868610, “Novel bicyclo[3.1.0]hexane analogs as antagonists of metabotropic glutamate 2/3 receptors for the treatment of depression” (Bioorg Med Chem Lett, 2016)
